The target in one assay is T1, human AT1 receptor (Homo sapiens, UniProt P30556).
T1 construct: expressed in transfected cells; membranes
T1 sequence (P30556 1-359): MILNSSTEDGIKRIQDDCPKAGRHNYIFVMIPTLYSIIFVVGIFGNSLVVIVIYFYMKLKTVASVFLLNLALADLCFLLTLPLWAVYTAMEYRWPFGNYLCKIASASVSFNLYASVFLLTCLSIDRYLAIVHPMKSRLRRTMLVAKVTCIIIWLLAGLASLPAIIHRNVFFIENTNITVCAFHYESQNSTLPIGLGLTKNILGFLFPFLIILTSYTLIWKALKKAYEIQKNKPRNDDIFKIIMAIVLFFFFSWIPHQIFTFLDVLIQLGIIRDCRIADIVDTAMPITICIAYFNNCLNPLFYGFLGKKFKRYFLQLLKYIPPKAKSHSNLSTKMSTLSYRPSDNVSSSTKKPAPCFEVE
Kind of assay: AT1 radioligand binding assay (Assay 1). The settings on record: displacement of [Eu]AngII, membranes of CHO-K1 cells expressing human AT1 receptor; read-out: pKi at the AT1 receptor (converted). As for the experimental part:
These in vitro assays were used to assess the ability of test compounds to bind to the AT1 and the AT2 receptors.
Chinese hamster ovary (CHO-K1) derived cell lines stably expressing the cloned human AT1 or AT2 receptors, respectively, were grown in HAM's-F12 medium supplemented with 10% fetal bovine serum, 10 μg/ml penicillin/streptomycin, and 500 μg/ml geneticin in a 5% CO2 humidified incubator at 37° C. AT2 receptor expressing cells were grown in the additional presence of 100 nM PD123,319 (AT2 antagonist). When cultures reached 80-95% confluence, the cells were washed thoroughly in PBS and lifted with 5 mM EDTA. Cells were pelleted by centrifugation and snap frozen in MeOH-dry ice and stored at −80° C. until further use.
For membrane preparation, cell pellets were resuspended in lysis buffer (25 mM Tris/HCl pH 7.5 at 4° C., 1 mM EDTA, and one tablet of Complete Protease Inhibitor Cocktail Tablets with 2 mM EDTA per 50 mL buffer (Roche cat. #1697498, Roche Molecular Biochemicals, Indianapolis, Ind.)) and homogenized using a tight-fitting Dounce glass homogenizer (10 strokes) on ice. The homogenate was centrifuged at 1000×g, the supernatant was collected and centrifuged at 20,000×g. […] Protein concentration of the membrane suspension was determined by the method described in Bradford (1976) Anal Biochem. 72:248-54. […]

A further assay has as its target T2, NEP enzyme (Homo sapiens, UniProt P08473).
T2 construct: purchased R&D Systems, Minneapolis, Minn; 1182-ZN
Kind of assay: In vitro NEP enzyme inhibition assay (Assay 2). The assay is classed as biochemical. The note with it: fluorogenic peptide substrate, room temperature; read-out: pIC50 for the NEP enzyme (converted). How it is done:
The inhibitory activities of compounds at human and rat NEP and human ACE were determined using in vitro assays as described below.
Rat NEP was prepared from the kidneys of adult Sprague Dawley rats. Whole kidneys were washed in cold PBS and brought up in ice-cold lysis buffer (1% Triton X-114, 150 mM NaCl, 50 mM Tris pH 7.5; Bordier (1981) J. Biol. Chem. 256:1604-1607) in a ratio of 5 mL of buffer for every gram of kidney. Samples were homogenized using a polytron hand held tissue grinder on ice. Homogenates were centrifuged at 1000×g in a swinging bucket rotor for 5 minutes at 3° C. The pellet was resuspended in 20 mL of ice cold lysis buffer and incubated on ice for 30 minutes. […] Protein concentrations were quantitated using a BCA detection system with BSA as a standard. […]
The assays were performed in 384-well white opaque plates at room temperature using the respective fluorogenic peptides at a concentration of 10 μM in Assay Buffer (50 mM Tris/HCl at 25° C., 100 mM NaCl, 0.01% Tween-20, 1 μM Zn, 0.025% BSA). […] The rat NEP enzyme preparation was used at a concentration that yielded quantitative proteolysis of 3 μM of Mca-RRL within 20 minutes at room temperature. […]
Plates were read on a fluorometer with excitation and emission wavelengths set to 320 nm and 405 nm, respectively. […]

T2 sequence (P08473 52-750 limits assumed): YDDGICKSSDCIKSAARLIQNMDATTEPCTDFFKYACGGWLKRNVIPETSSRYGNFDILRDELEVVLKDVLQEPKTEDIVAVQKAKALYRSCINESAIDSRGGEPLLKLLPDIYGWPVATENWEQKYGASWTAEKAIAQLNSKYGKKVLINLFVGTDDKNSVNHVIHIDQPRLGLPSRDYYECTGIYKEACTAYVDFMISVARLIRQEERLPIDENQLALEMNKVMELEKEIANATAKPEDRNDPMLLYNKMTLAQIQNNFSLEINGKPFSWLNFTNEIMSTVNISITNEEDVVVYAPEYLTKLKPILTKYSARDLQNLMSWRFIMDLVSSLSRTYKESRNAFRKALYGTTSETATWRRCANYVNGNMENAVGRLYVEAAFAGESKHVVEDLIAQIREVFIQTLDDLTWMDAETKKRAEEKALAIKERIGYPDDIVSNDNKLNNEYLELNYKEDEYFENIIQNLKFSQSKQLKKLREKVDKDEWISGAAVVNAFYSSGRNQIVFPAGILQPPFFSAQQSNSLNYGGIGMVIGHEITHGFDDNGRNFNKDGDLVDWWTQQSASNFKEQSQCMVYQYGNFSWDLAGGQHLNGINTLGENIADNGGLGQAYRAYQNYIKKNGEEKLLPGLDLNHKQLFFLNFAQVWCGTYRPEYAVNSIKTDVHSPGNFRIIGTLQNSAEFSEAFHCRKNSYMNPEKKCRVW

Regarding `CCCCc1nc(Cl)c(CO)n1Cc1ccc(-c2ccccc2S(=O)(=O)NC(=O)CNC(=O)C(Cc2ccccc2)C(=O)NO)cc1` (centres unmarked) [Example 1, 2-Benzyl-N-{2-[4′-(2-butyl-4-chloro-5-hydroxymethylimidazol-1-ylmethyl)biphenyl-2-sulfonylamino]-2-oxoethyl}-N′-hydroxymalonamide.(C2HF3O2)], at human AT1 receptor, the Ki was less than 100 nM. In addition, the IC50 on NEP enzyme is no more than 100 nM.

For the origin of these results see patent US8227497B2, “Dual-acting antihypertensive agents” (Theravance, Inc., priority 2008, dated 2012).
